Where two headings read alike, the source gives them in different places.
Key:
A2780 cells = assay: Viability assay in A2780 (Cell Titer Glo); type: cell-based, human; conditions: Homo sapiens
How it was run: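 EC50 values come from Cell Titer Glo luminescence after 72 hrs of compound exposure at 37° C, run in duplicate. A2780 cells were plated at 1,000 per well in DMEM with 10% FBS and dosed with 3-fold serial dilutions.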

PI3 K Alpha = PI3 K Alpha (Homo sapiens, UniProt P42336); assay: PI3 kinase phosphorylation assays (homogenous solution phase, one step solid phase, ATP depletion/KinaseGlo); type: biochemical
[1] = system: pSer473-Akt in A2780 cells; assay: pSer473 Akt assay to monitor PI3K pathway in A2780 cells (MSD); type: cell-based; conditions: Homo sapiens
How it was run: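 EC50 is derived from percent inhibition of Akt Ser473 phosphorylation, normalised to total Akt and compared with DMSO-only wells, read by MSD immunoassay. Lysates came from A2780 cells plated overnight at 15,000/well and exposed to compound for one hour at 37 °C.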

[2] = A2780 cells, read-out: A2780 Cell prolif. EC50
[3] = A2780 cells, read-out: A2780 pAKT 473 EC50

PI3 K Alpha, sequence (P42336 whole entry): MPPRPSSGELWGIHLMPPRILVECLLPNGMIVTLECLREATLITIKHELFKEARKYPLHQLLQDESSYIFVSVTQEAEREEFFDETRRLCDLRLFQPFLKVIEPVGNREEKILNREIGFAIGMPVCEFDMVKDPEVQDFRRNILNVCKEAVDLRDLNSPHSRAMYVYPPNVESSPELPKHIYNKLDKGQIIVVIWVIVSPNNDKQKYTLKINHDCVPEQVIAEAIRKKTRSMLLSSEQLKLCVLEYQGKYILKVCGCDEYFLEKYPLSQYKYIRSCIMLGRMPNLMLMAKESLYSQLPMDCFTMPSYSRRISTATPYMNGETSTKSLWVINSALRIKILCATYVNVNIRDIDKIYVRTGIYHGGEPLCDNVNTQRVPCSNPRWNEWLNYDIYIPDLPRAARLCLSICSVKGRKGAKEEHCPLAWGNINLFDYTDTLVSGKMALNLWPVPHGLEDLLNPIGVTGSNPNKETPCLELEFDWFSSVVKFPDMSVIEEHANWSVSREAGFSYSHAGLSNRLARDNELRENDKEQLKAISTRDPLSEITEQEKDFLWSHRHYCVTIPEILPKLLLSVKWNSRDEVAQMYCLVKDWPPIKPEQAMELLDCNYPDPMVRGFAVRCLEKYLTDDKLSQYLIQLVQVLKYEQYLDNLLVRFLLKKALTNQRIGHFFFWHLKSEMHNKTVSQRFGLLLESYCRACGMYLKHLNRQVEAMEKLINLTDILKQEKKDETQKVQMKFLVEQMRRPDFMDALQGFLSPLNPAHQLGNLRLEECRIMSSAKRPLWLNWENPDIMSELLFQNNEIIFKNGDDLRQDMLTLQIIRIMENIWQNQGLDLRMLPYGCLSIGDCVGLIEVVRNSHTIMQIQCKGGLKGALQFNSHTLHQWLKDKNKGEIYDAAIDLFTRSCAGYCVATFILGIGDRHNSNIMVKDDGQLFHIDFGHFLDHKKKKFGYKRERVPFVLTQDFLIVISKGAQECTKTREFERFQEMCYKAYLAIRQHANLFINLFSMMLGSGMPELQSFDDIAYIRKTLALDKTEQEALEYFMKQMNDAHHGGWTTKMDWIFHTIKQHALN
PI3 K Alpha, sequence (P27986 whole entry partner): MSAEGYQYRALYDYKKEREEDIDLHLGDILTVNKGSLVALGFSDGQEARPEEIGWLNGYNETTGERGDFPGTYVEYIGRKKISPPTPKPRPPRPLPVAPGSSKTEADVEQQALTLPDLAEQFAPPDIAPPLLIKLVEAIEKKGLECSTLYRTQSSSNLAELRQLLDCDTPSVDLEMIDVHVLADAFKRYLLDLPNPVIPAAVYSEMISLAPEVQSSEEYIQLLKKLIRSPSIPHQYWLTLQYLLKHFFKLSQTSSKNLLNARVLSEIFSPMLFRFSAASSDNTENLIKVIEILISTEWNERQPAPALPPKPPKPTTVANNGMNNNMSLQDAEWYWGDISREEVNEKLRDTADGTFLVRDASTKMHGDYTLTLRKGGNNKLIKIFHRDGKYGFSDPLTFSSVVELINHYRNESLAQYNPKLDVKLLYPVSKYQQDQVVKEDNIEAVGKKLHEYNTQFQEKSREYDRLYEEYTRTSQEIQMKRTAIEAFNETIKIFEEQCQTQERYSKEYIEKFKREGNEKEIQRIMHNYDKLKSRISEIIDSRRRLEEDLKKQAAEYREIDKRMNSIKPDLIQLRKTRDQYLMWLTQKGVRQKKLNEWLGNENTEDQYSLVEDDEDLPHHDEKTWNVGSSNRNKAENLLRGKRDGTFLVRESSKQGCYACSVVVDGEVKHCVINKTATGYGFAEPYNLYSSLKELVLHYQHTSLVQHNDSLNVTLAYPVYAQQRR

EC50 (A2780 cells; [2]) | IC50 (PI3 K Alpha; read-out: PI3K Alpha IC50) | EC50 [1, 3] | SMILES | EC50 (A2780 cells; A2780, read-out: A2780 Cell prolif. EC50) | IC50 (PI3 K Alpha) | EC50 ([1]; A2780, read-out: A2780 pAKT 473 EC50)
< 1000 nM | < 1000 nM | < 10000 nM | CC(C)(C)OC(=O)NCCCC(=O)Nc1cn2nc(-c3cnc(N)c(C(F)(F)F)c3)ccc2n1 [Example 79, tert-butyl 4-(6-(6-amino-5-(trifluoromethyl)pyridin-3-yl)imidazo[1,2-b]pyridazin-2-ylamino)-4-oxobutylcarbamate] |  |  | 
< 1000 nM | < 1000 nM | < 1000 nM | CNCC(=O)Nc1cn2cc(-c3cnc(N)c(C(F)(F)F)c3)ccc2n1 [Example 80, N-(6-(6-amino-5-(trifluoromethyl)pyridin-3-yl)imidazo[1,2-a]pyridin-2-yl)-2-(methylamino) acetamide] |  |  | 
< 1000 nM | < 1000 nM | < 1000 nM | CC(=O)Nc1cn2nc(-c3cnc(N)c(-c4ccccc4F)c3)ccc2n1 [Example 81, N-(6-(6-amino-5-(2-fluorophenyl)pyridin-3-yl)imidazo[1,2-b]pyridazin-2-yl)acetamide] |  |  | 
< 1000 nM | < 1000 nM | < 1000 nM | Nc1ncc(-c2ccc3nc(NC(=O)CO[C@H]4CCNC4)cn3n2)cc1C(F)(F)F [Example 82, (S)-N-(6-(6-amino-5-(trifluoromethyl)pyridin-3-yl)imidazo[1,2-b]pyridazin-2-yl)-2-(pyrrolidin-3-yloxy)acetamide] |  |  | 
 |  |  | CC(=O)Nc1nc2ccc(-c3cnc(N)c(C(F)(F)F)c3)cn2c1C#Cc1cccnc1 [Example 83, N-(6-(6-amino-5-(trifluoromethyl)pyridin-3-yl)-3-(pyridin-3-ylethynyl)imi-dazo[1,2-a]pyridin-2-yl)acetamide] | < 1000 nM | < 1000 nM | < 1000 nM
< 1000 nM | < 1000 nM | < 1000 nM | CC(=O)Nc1cn2nc(-c3cnc(N)c(-c4ccccc4)c3)ccc2n1 [Example 84, N-(6-(6-amino-5-phenylpyridin-3-yl)imidazo[1,2-b]pyridazin-2-yl)acetamide] |  |  | 
< 1000 nM | < 1000 nM | < 1000 nM | CC(C)(C)OC(=O)N1CCN(c2ccc(C(=O)Nc3cn4cc(-c5cnc(N)c(C(F)(F)F)c5)ccc4n3)cn2)CC1 [Example 85, tert-butyl 4-(5-(6-(6-amino-5-(trifluoromethyl)pyridin-3-yl)imidazo[1,2-a]pyridin-2-ylcarbamoyl)pyridin-2-yl)piperazine-1-carboxylate] |  |  | 
< 1000 nM | < 1000 nM | < 1000 nM | CC(=O)Nc1cn2cc(-c3cnc(N)c(-c4cccc(N5CCOCC5)c4)c3)ccc2n1 [Example 86, N-(6-(6-amino-5-(3-morpholino-phenyl)pyridin-3-yl)imidazo[1,2-a]pyridin-2-yl)acetamide] |  |  | 
< 1000 nM | < 1000 nM | < 1000 nM | CC(=O)Nc1cn2nc(-c3cnc(N)c(Cl)c3)ccc2n1 [Example 87, N-(6-(6-amino-5-chloropyridin-3-yl)imidazo[1,2-b]pyridazin-2-yl)acetamide] |  |  | 
< 1000 nM | < 1000 nM | < 1000 nM | CC(=O)Nc1cn2cc(-c3cnc(N)c(-c4cccc(C(F)(F)F)c4)c3)ccc2n1 [Example 88, N-(6-(6-amino-5-(3-(trifluoromethyl)phenyl)pyridin-3-yl)imidazo[1,2-a]pyridin-2-yl)acetamide] |  |  | 
< 1000 nM | < 1000 nM | < 1000 nM | COCC(=O)Nc1cn2cc(-c3cnc(N)c(OCC(F)(F)F)n3)ccc2n1 [Example 89] |  |  | 
< 1000 nM | < 1000 nM | < 1000 nM | CC(=O)Nc1cn2nc(-c3cnc(N)c(-c4ccccc4OC(F)(F)F)c3)ccc2n1 [Example 90, N-(6-(6-amino-5-(2-(trifluoromethoxy)phenyl)pyridin-3-yl)imidazo[1,2-b]pyridazin-2-yl)acetamide] |  |  | 
< 1000 nM | < 1000 nM | < 1000 nM | CC(=O)Nc1cn2cc(-c3cnc(N)c(Oc4cccnc4)n3)ccc2n1 [Example 91, N-(6-(5-amino-6-(pyridin-3-yloxy)pyrazin-2-yl)imidazo[1,2-a]pyridin-2-yl)acetamide] |  |  | 
< 1000 nM | < 1000 nM | < 10000 nM | CC(=O)Nc1cn2cc(-c3cnc(N)c(-c4cccc(OC(F)(F)F)c4)c3)ccc2n1 [Example 92, N-(6-(6-amino-5-(3-(trifluoromethoxy)phenyl)pyridin-3-yl)imidazo[1,2-a]pyridin-2-yl)acetamide] |  |  | 
< 1000 nM | < 1000 nM | < 1000 nM | CC(=O)Nc1cn2cc(-c3cnc(N)c(-c4ccc(C(F)(F)F)cc4)c3)ccc2n1 [Example 93, N-(6-(6-amino-5-(4-(trifluoromethyl)phenyl)pyridin-3-yl)imidazo[1,2-a]pyridin-2-yl)acetamide] |  |  | 
< 1000 nM | < 1000 nM | < 1000 nM | Cc1cc(C(=O)Nc2cn3cc(-c4cnc(N)c(C(F)(F)F)c4)ccc3n2)no1 [Example 94, N-(6-(6-amino-5-(trifluoromethyl)pyridin-3-yl)imidazo[1,2-a]pyridin-2-yl)-5-methylisoxazole-3-carboxamide] |  |  | 
< 1000 nM | < 1000 nM | < 1000 nM | CC(=O)Nc1cn2nc(-c3cnc(N)c(-c4ccn(C)n4)c3)ccc2n1 [Example 95, N-(6-(6-amino-5-(1-methyl-1H-pyrazol-3-yl)pyridin-3-yl)imidazo[1,2-b]pyridazin-2-yl)acetamide] |  |  | 
< 1000 nM | < 1000 nM | < 1000 nM | CCC(=O)Nc1cn2nc(-c3cnc(N)c(C(F)(F)F)c3)ccc2n1 [Example 96, N-(6-(6-amino-5-(trifluoromethyl)pyridin-3-yl)imidazo[1,2-b]pyridazin-2-yl)propionamide] |  |  | 
< 1000 nM | < 1000 nM | < 10000 nM | CC(=O)Nc1cn2cc(-c3cnc(N)c(-c4ccc(OC(F)(F)F)cc4)c3)ccc2n1 [Example 97, N-(6-(6-amino-5-(4-(trifluoromethoxy)phenyl)pyridin-3-yl)imidazo[1,2-a]pyridin-2-yl)acetamide] |  |  | 
< 1000 nM | < 1000 nM | < 1000 nM | CC(C)(C)OC(=O)N1CC[C@H](OCC(=O)Nc2cn3nc(-c4cnc(N)c(C(F)(F)F)c4)ccc3n2)C1 [Example 98, (S)-tert-butyl 3-(2-(6-(6-amino-5-(trifluoromethyl)pyridin-3-yl)imidazo[1,2-b]pyridazin-2-ylamino)-2-oxoethoxy) pyrrolidine-1-carboxylate] |  |  | 
< 1000 nM | < 1000 nM | < 1000 nM | COc1ccc(CC(=O)Nc2cn3cc(-c4cnc(N)c(C(F)(F)F)c4)ccc3n2)cc1 [Example 99, N-(6-(6-amino-5-(trifluoromethyl)pyridin-3-yl)imidazo[1,2-a]pyridin-2-yl)-2-(4-methoxyphenyl) acetamide] |  |  | 
< 1000 nM | < 1000 nM | < 1000 nM | CC(=O)Nc1cn2cc(-c3cnc(N)c(C(=O)NCCN4CCCC4)n3)ccc2n1 [Example 100, 6-(2-acetamido-imidazo[1,2-a]pyridin-6-yl)-3-amino-N-(2-(pyrrolidin-1-yl)ethyl) pyrazine-2-carboxamide] |  |  | 
< 1000 nM | < 1000 nM | < 1000 nM | CC(C)(C)OC(=O)N1CC[C@@H](OCC(=O)Nc2cn3nc(-c4cnc(N)c(C(F)(F)F)c4)ccc3n2)C1 [Example 102, (R)-tert-butyl 3-(2-(6-(6-amino-5-(trifluoromethyl)pyridin-3-yl)imidazo[1,2-b]pyridazin-2-ylamino)-2-oxoethoxy) pyrrolidine-1-carboxylate] |  |  | 
< 1000 nM | < 1000 nM | < 1000 nM | CC(=O)Nc1cn2nc(-c3cnc(N)c(C(=O)NCCNC(=O)OC(C)(C)C)c3)ccc2n1 [Example 103, tert-butyl 2-(5-(2-acetamido-imidazo[1,2-b]pyridazin-6-yl)-2-aminonicotin-amido)ethyl-carbamate] |  |  | 
< 1000 nM | < 1000 nM | < 1000 nM | CCN1CCCCC1CCC(=O)Nc1cn2nc(-c3cnc(N)c(C(F)(F)F)c3)ccc2n1 (stereo not drawn) [Example 104, N-(6-(6-amino-5-(trifluoromethyl)pyridin-3-yl)imidazo[1,2-b]pyridazin-2-yl)-3-(1-ethylpiperidin-2-yl)propanamide] |  |  | 
< 1000 nM | < 1000 nM | < 1000 nM | CC(=O)Nc1cn2cc(-c3cnc(N)c(-c4ccccc4N4CCOCC4)c3)ccc2n1 [Example 105, N-(6-(6-amino-5-(2-morpholino-phenyl)pyridin-3-yl)imidazo[1,2-a]pyridin-2-yl)acetamide] |  |  | 
< 1000 nM | < 1000 nM | < 1000 nM | CC(=O)Nc1cn2nc(-c3cnc(N)c(-c4ccc(C(F)(F)F)cc4)c3)ccc2n1 [Example 107, N-(6-(6-amino-5-(4-(trifluoromethyl)phenyl)pyridin-3-yl)imidazo[1,2-b]pyridazin-2-yl)acetamide] |  |  | 
< 1000 nM | < 1000 nM | < 1000 nM | Nc1ncc(-c2ccc3nc(NC(=O)CCCN4CCOCC4)cn3n2)cc1C(F)(F)F [Example 108, N-(6-(6-amino-5-(trifluoromethyl)pyridin-3-yl)imidazo[1,2-b]pyridazin-2-yl)-4-morpholino-butanamide] |  |  | 
< 1000 nM | < 1000 nM | < 1000 nM | Nc1ncc(-c2ccc3nc(NC(=O)Cc4cccc5ccccc45)cn3c2)cc1C(F)(F)F [Example 110, N-(6-(6-amino-5-(trifluoromethyl)pyridin-3-yl)imidazo[1,2-a]pyridin-2-yl)-2-(naphthalen-1-yl)acetamide] |  |  | 

Reference: patent US20100075965A1, “PI3 KINASE INHIBITORS AND METHODS OF THEIR USE” (Novartis AG, priority 2006, published 2010)
